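Five compound concentrations were applied to cells in 96-well plates for 48 hours; endpoints were derived by simple linear interpolation of the resulting dose-response curve. Definition used: TGI = concentration required for complete inhibition of growth.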
Tests used:
Experiment in all cases: growth of human tumour cells (NCI), 48 h
[1] = system: 786-0 renal
[2] = system: A498 renal
[3] = system: A549 NSCLC
[4] = system: ACHN renal
[5] = system: BT-549 breast
[6] = system: CAKI-1 renal
[7] = system: CCRF-CEM leukemia
[8] = system: COLO 205 colon
[9] = system: DU-145 prostate
[10] = system: EKVX NSCLC
[11] = system: HCC-2998 colon
[12] = system: HCT-116 colon
[13] = system: HCT-15 colon
[14] = system: HL-60(TB) leukemia
[15] = system: HOP-62 NSCLC
[16] = system: HS 578T breast
[17] = system: HT29 colon
[18] = system: IGROV1 ovarian
[19] = system: K-562 leukemia
[20] = system: KM12 colon
[21] = system: LOX IMVI melanoma
[22] = system: M14 melanoma
[23] = system: MALME-3M melanoma
[24] = system: MCF7 breast
[25] = system: MDA-MB-231 breast
[26] = system: MDA-MB-435
[27] = system: MDA-N
[28] = system: MOLT-4 leukemia
[29] = system: NCI-H226 lung
[30] = system: NCI-H23 lung
[31] = system: NCI-H460 lung
[32] = system: NCI-H522 lung
[33] = system: NCI/ADR-RES ovarian
[34] = system: OVCAR-3 ovarian
[35] = system: OVCAR-4 ovarian
[36] = system: OVCAR-5 ovarian
[37] = system: OVCAR-8 ovarian
[38] = system: PC-3 prostate
[39] = system: RPMI-8226 leukemia
[40] = system: SF-268 CNS
[41] = system: SF-295 CNS
[42] = system: SF-539 CNS
[43] = system: SK-MEL-2 melanoma
[44] = system: SK-MEL-28 melanoma
[45] = system: SK-MEL-5 melanoma
[46] = system: SK-OV-3 ovarian
[47] = system: SN12C renal
[48] = system: SNB-19 CNS
[49] = system: SNB-75 CNS
[50] = system: SR leukemia
[51] = system: SW-620 colon
[52] = system: T-47D breast
[53] = system: TK-10 renal
[54] = system: U251 CNS
[55] = system: UACC-257 melanoma
[56] = system: UACC-62 melanoma
[57] = system: UO-31 renal
[58] = system: HOP-92 NSCLC
[59] = system: RXF 393 renal

For `COC(=O)C1(Cc2ccc3c(c2)CCC3)Cc2ccccc2C1=O` (stereo not drawn), the TGI [1] was greater than 100 µM, the TGI [2] was 57.9 µM and the TGI [3] was greater than 100 µM. The TGI [4] was greater than 100 µM, the TGI [5] was 41.7 µM and the TGI [6] was greater than 100 µM. It also gave a TGI [7] of 67.2 µM, a TGI [8] of 30.4 µM and a TGI [9] of 67.8 µM. For the same compound, the TGI [10] was 73.7 µM, the TGI [11] was greater than 100 µM and the TGI [12] was 46.6 µM. It also gave a TGI [13] greater than 100 µM, a TGI [14] of 32.4 µM and a TGI [15] of 59.3 µM. The TGI [16] was 87.6 µM, the TGI [17] was 30.3 µM and the TGI [18] was greater than 100 µM. For the same compound, the TGI [19] was 48.4 µM, the TGI [20] was 20.3 µM and the TGI [21] was 28.5 µM. For the same compound, the TGI [22] was 32.4 µM, the TGI [23] was greater than 100 µM and the TGI [24] was 70.1 µM. For the same compound, the TGI [25] was greater than 100 µM, the TGI [26] was 18 µM and the TGI [27] was 13.3 µM. It also gave a TGI [28] of 52.3 µM, a TGI [29] of 50.5 µM and a TGI [30] of 95.4 µM. The TGI [31] was 93.6 µM, the TGI [32] was 31.5 µM and the TGI [33] was greater than 100 µM. For the same compound, the TGI [34] was greater than 100 µM, the TGI [35] was greater than 100 µM and the TGI [36] was greater than 100 µM. For the same compound, the TGI [37] was greater than 100 µM, the TGI [38] was greater than 100 µM and the TGI [39] was 58.7 µM. The TGI [40] was 70.7 µM, the TGI [41] was 67.4 µM and the TGI [42] was 32.9 µM. For the same compound, the TGI [43] was 38.7 µM, the TGI [44] was 40.3 µM and the TGI [45] was 18.1 µM. The TGI [46] was 85.8 µM, the TGI [47] was greater than 100 µM and the TGI [48] was greater than 100 µM. For the same compound, the TGI [49] was greater than 100 µM, the TGI [50] was greater than 100 µM and the TGI [51] was greater than 100 µM. It also gave a TGI [52] greater than 100 µM, a TGI [53] of 55.9 µM and a TGI [54] of 37.2 µM. It also gave a TGI [55] of 76 µM, a TGI [56] greater than 100 µM and a TGI [57] of 84.4 µM.

`OC1(c2ccc(Cl)cc2)c2ccc(CN3CCCC3)cc2C2=NCCN21` (stereo not drawn) gave a TGI [1] of 28.6 µM, a TGI [2] of 25.8 µM and a TGI [3] of 33.3 µM. For the same compound, the TGI [4] was 30.3 µM, the TGI [5] was 21.3 µM and the TGI [6] was 31.7 µM. It also gave a TGI [7] of 30.7 µM, a TGI [8] of 22.7 µM and a TGI [9] of 32.2 µM. For the same compound, the TGI [10] was 32.7 µM, the TGI [12] was 27.1 µM and the TGI [13] was 32.9 µM. It also gave a TGI [14] of 29.1 µM, a TGI [15] of 29.2 µM and a TGI [58] of 16.1 µM. It also gave a TGI [16] of 26 µM, a TGI [17] of 26.7 µM and a TGI [18] of 28.7 µM. For the same compound, the TGI [19] was 45.2 µM, the TGI [20] was 27.6 µM and the TGI [21] was 29.1 µM. For the same compound, the TGI [22] was 12.8 µM, the TGI [23] was 25.2 µM and the TGI [24] was 33.4 µM. For the same compound, the TGI [25] was 27.3 µM, the TGI [26] was 23.5 µM and the TGI [27] was 22.8 µM. For the same compound, the TGI [28] was 41.9 µM, the TGI [30] was 31.2 µM and the TGI [31] was 29.1 µM. The TGI [33] was greater than 100 µM, the TGI [34] was 31.7 µM and the TGI [35] was 25.1 µM. The TGI [36] was 31.9 µM, the TGI [37] was 29.9 µM and the TGI [38] was 27.2 µM. For the same compound, the TGI [39] was 26 µM, the TGI [59] was 21.2 µM and the TGI [40] was 29.7 µM. For the same compound, the TGI [41] was 29.5 µM, the TGI [42] was 25.9 µM and the TGI [43] was 34.2 µM. The TGI [44] was 22.7 µM, the TGI [45] was 22.3 µM and the TGI [46] was 27.3 µM. The TGI [47] was 31.7 µM, the TGI [48] was 31.1 µM and the TGI [49] was 18.5 µM. It also gave a TGI [50] of 33.1 µM, a TGI [51] of 26.5 µM and a TGI [52] of 38.5 µM. For the same compound, the TGI [53] was 17.4 µM, the TGI [54] was 27.2 µM and the TGI [55] was 25.1 µM. For the same compound, the TGI [56] was 28.1 µM and the TGI [57] was 27.5 µM.

Source: PubChem BioAssay (NCI)
